According to patent US20240270762A1, “PENICILLIN-BINDING PROTEIN INHIBITORS” (priority 2021, published 2024):
≈ marks a conversion by molar mass, not a printed value. Like-named read-outs stand apart in the source and are kept apart here.

How the values were obtained:
N. gonorrhoeae WHO X = experiment: Liquid broth MIC in Fastidious broth; details: Neisseria gonorrhoeae
N. gonorrhoeae WHO K = experiment: Liquid broth MIC in Fastidious broth; details: Neisseria gonorrhoeae
A. baumannii CDC-0036 = experiment: microbe, parasite or virus in culture; type: cell-based; details: Acinetobacter baumannii, CDC0036, read-out: MIC, A. baumannii CDC-0036
[1] = target: T1, PBP3 from Acinetobacter baumannii (ATCC 19606) (Acinetobacter baumannii, UniProt A0ABX6CK25); experiment: Bocillin-FL fluorescence polarization competition binding, A. baumannii PBP3; details: fluorescence polarization competition binding assay using Bocillin-FL; read-out: A. baumannii PBP3 Potency
T1 sequence (A0ABX6CK25 64-610): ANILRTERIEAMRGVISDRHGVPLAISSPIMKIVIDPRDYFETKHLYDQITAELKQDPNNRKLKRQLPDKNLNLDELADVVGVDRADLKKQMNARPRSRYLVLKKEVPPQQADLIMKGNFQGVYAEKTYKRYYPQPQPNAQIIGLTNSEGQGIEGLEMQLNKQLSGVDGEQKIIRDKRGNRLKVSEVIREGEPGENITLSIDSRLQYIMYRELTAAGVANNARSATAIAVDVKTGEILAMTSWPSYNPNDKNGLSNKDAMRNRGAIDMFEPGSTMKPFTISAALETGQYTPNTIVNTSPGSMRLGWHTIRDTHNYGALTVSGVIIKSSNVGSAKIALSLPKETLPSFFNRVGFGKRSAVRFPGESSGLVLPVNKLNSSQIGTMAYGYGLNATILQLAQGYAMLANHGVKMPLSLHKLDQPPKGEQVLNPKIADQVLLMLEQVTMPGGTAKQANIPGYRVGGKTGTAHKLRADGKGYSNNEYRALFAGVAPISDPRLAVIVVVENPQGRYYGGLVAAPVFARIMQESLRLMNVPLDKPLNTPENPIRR
Method in brief: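 Purified PBP was preincubated with inhibitor (E. coli PBP3 1.5 μM, 30 min; P. aeruginosa PBP3 0.75 μM, A. baumannii PBP3 0.2 μM and PBP1a 1 μM, 15 min), then Bocillin-FL (0.1 μM; 0.05 μM for PBP1a) added and FP read up to 60 min. EC50 = 50% loss of bound probe.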

N. gonorrhoeae WHO Z = experiment: Liquid broth MIC in Fastidious broth; details: Neisseria gonorrhoeae
N. gonorrhoeae WHO Q = experiment: Liquid broth MIC in Fastidious broth; details: Neisseria gonorrhoeae
N. gonorrhoeae FA1090 = experiment: Liquid broth MIC in Fastidious broth; details: Neisseria gonorrhoeae
P. aeruginosa CDC-0095 = experiment: microbe, parasite or virus in culture; type: cell-based; details: Pseudomonas aeruginosa, CDC0095, read-out: Minimum inhibitory concentration, P. aeruginosa CDC-0095
N. gonorrhoeae WHO G = experiment: Liquid broth MIC in Fastidious broth; details: Neisseria gonorrhoeae
N. gonorrhoeae WHO M = experiment: Liquid broth MIC in Fastidious broth; details: Neisseria gonorrhoeae
Description: Liquid broth-based assays were used for antibacterial testing of PBP inhibitors in Neisseria gonorrhoeae. Briefly, cryo-preserved bacterial cultures of clinical strains were streaked for isolation on Chocolate Agar (72 g/L (2×) GC Agar Base (BD #228950) and 2% (2×) Hemoglobin was autoclaved at 121° C. for 20 minutes to sterilize. Once cooled to ˜50° C. the 2×GC Agar Base and 2× Hemoglobin solutions are combined and 1% IsoVitaleX Enrichment (BD #211876) was added to the solution). Strains were incubated at 36° C. and 5% CO2 to allow growth of colonies, 24 hours before inoculum preparation. 2-fold serial dilutions of test compounds were conducted in a 96 well plate with a final volume of 75 μL per well at 2-fold the final desired concentration in Fastidious broth (Remel #R07664). For preparation of assay inoculum, a direct suspension was prepared by aseptically swabbing 10-15 colonies from agar plates into culture tubes containing 2 mL of fresh sterile saline. After the dilution plates were set up, direct suspensions were then diluted in a cuvette containing sterile saline and the optical density was measured at 600 nm. Inocula were diluted such that 75 μL of this culture in Fastidious broth results in a starting bacterial concentration of 5×10^5 CFU/mL when added to the dilution plates. The plates were incubated for ˜24 hours at 36° C. and 5% CO2.

A. baumannii 1258916 = experiment: microbe, parasite or virus in culture; type: cell-based, Acinetobacter baumannii; details: Acinetobacter baumannii, 1258916, read-out: MIC, A. baumannii 1258916
[2] = read-out: Minimum Inhibitory Concentration (MIC), N. gonorrhoeae WHO X
[3] = read-out: Minimum Inhibitory Concentration (MIC), N. gonorrhoeae WHO K
[4] = read-out: Minimum Inhibitory Concentration (MIC), N. gonorrhoeae WHO Z
[5] = read-out: Minimum Inhibitory Concentration (MIC), N. gonorrhoeae WHO Q
[6] = FA1090, read-out: Minimum Inhibitory Concentration (MIC), N. gonorrhoeae FA 1090
[7] = read-out: Minimum Inhibitory Concentration (MIC), N. gonorrhoeae WHO G
[8] = read-out: Minimum Inhibitory Concentration (MIC), N. gonorrhoeae WHO M
[9] = read-out: Minimum Inhibitory Concentration, WHO X
[10] = read-out: Minimum Inhibitory Concentration, WHO K
[11] = read-out: Minimum Inhibitory Concentration, WHO Z
[12] = read-out: Minimum Inhibitory Concentration, WHO Q
[13] = FA1090, read-out: Minimum Inhibitory Concentration, FA 1090
[14] = read-out: Minimum Inhibitory Concentration, WHO G
[15] = read-out: Minimum Inhibitory Concentration, WHO M

SMILES: CN(CCN1CCN(C(=O)NC(C(=O)N[C@H]2Cc3ccc(F)c(C(=O)O)c3OB2O)c2cc(F)c(O)c(O)c2Cl)C(=O)C1=O)S(=O)(=O)c1ccc(C(N)=O)cc1 (stereo partly drawn) [Example 223, (3R)-3-(2-(4-(2-((4-carbamoyl-N-methylphenyl)sulfonamido)ethyl)-2,3-dioxopiperazine-1-carboxamido)-2-(2-chloro-5-fluoro-3,4-dihydroxyphenyl)acetamido)-7-fluoro-2-hydroxy-3,4-dihydro-2H-benzo[e][1,2]oxaborinine-8-carboxylic acid]
- MIC (N. gonorrhoeae WHO X; [2]): > 64 µg/mL
- MIC (N. gonorrhoeae WHO K; [3]): > 64 µg/mL
- MIC (A. baumannii CDC-0036): 8 to 16 µg/mL (≈ 9.72 to 19.4 µM)
- IC50 [1]: < 10 µM
- MIC (N. gonorrhoeae WHO Z; [4]): 16 to 32 µg/mL (≈ 19.4 to 38.9 µM)
- MIC (N. gonorrhoeae WHO Q; [5]): > 64 µg/mL
- MIC (N. gonorrhoeae FA1090; [6]): 4 to 8 µg/mL (≈ 4.86 to 9.72 µM)
- MIC (P. aeruginosa CDC-0095): 2 to 4 µg/mL (≈ 2.43 to 4.86 µM)
- MIC (N. gonorrhoeae WHO G; [7]): 16 to 32 µg/mL (≈ 19.4 to 38.9 µM)
- MIC (N. gonorrhoeae WHO M; [8]): 16 to 32 µg/mL (≈ 19.4 to 38.9 µM)
- MIC (A. baumannii 1258916): 2 to 4 µg/mL (≈ 2.43 to 4.86 µM)

SMILES: CN(CCN1CCN(C(=O)NC(C(=O)N[C@H]2Cc3ccc(F)c(C(=O)O)c3OB2O)c2cc(F)c(O)c(O)c2Cl)C(=O)C1=O)S(=O)(=O)c1cccc(C(N)=O)c1 (stereo partly drawn) [Example 224, (3R)-3-(2-(4-(2-((3-carbamoyl-N-methylphenyl)sulfonamido)ethyl)-2,3-dioxopiperazine-1-carboxamido)-2-(2-chloro-5-fluoro-3,4-dihydroxyphenyl)acetamido)-7-fluoro-2-hydroxy-3,4-dihydro-2H-benzo[e][1,2]oxaborinine-8-carboxylic acid]
- MIC (N. gonorrhoeae WHO X; [2]): > 64 µg/mL
- MIC (N. gonorrhoeae WHO K; [3]): > 64 µg/mL
- MIC (A. baumannii CDC-0036): 8 to 16 µg/mL (≈ 9.72 to 19.4 µM)
- IC50 [1]: < 10 µM
- MIC (N. gonorrhoeae WHO Z; [4]): > 64 µg/mL
- MIC (N. gonorrhoeae WHO Q; [5]): > 64 µg/mL
- MIC (N. gonorrhoeae FA1090; [6]): 4 to 8 µg/mL (≈ 4.86 to 9.72 µM)
- MIC (P. aeruginosa CDC-0095): 2 to 4 µg/mL (≈ 2.43 to 4.86 µM)
- MIC (N. gonorrhoeae WHO G; [7]): 16 to 32 µg/mL (≈ 19.4 to 38.9 µM)
- MIC (N. gonorrhoeae WHO M; [8]): 16 to 32 µg/mL (≈ 19.4 to 38.9 µM)
- MIC (A. baumannii 1258916): 2 to 4 µg/mL (≈ 2.43 to 4.86 µM)

SMILES: O=C(NCCN1CCN(C(=O)NC(C(=O)N[C@H]2Cc3ccc(F)c(C(=O)O)c3OB2O)c2cc(F)c(O)c(O)c2Cl)C1=O)Nc1ccncc1 (stereo partly drawn) [Example 250, (3R)-3-(2-(2-chloro-5-fluoro-3,4-dihydroxyphenyl)-2-(2-oxo-3-(2-(3-(pyridin-4-yl)ureido)ethyl)imidazolidine-1-carboxamido)acetamido)-7-fluoro-2-hydroxy-3,4-dihydro-2H-benzo[e][1,2]oxaborinine-8-carboxylic acid]
- MIC (N. gonorrhoeae WHO X; [9]): > 64 µg/mL
- MIC (N. gonorrhoeae WHO K; [10]): > 64 µg/mL
- MIC (A. baumannii CDC-0036): 2 to 4 µg/mL (≈ 2.79 to 5.57 µM)
- IC50 [1]: < 10 µM
- MIC (N. gonorrhoeae WHO Z; [11]): > 64 µg/mL
- MIC (N. gonorrhoeae WHO Q; [12]): > 64 µg/mL
- MIC (N. gonorrhoeae FA1090; [13]): 4 to 8 µg/mL (≈ 5.57 to 11.1 µM)
- MIC (P. aeruginosa CDC-0095): 32 to 64 µg/mL (≈ 44.6 to 89.2 µM)
- MIC (N. gonorrhoeae WHO G; [14]): > 64 µg/mL
- MIC (N. gonorrhoeae WHO M; [15]): 16 to 32 µg/mL (≈ 22.3 to 44.6 µM)
- MIC (A. baumannii 1258916): < 1 µg/mL

SMILES: O=C(O)c1c(F)ccc2c1OB(O)[C@@H](NC(=O)C(NC(=O)N1CCN(CCNC(=O)[C@@H]3CCCN3)C1=O)c1cc(F)c(O)c(O)c1Cl)C2 (stereo partly drawn) [Example 248, (3R)-3-(2-(2-chloro-5-fluoro-3,4-dihydroxyphenyl)-2-(2-oxo-3-(2-((S)-pyrrolidine-2-carboxamido)ethyl)imidazolidine-1-carboxamido)acetamido)-7-fluoro-2-hydroxy-3,4-dihydro-2H-benzo[e][1,2]oxaborinine-8-carboxylic acid]
- MIC (N. gonorrhoeae WHO X; [9]): > 64 µg/mL
- MIC (N. gonorrhoeae WHO K; [10]): 16 to 32 µg/mL (≈ 23 to 46.1 µM)
- MIC (A. baumannii CDC-0036): 2 to 4 µg/mL (≈ 2.88 to 5.76 µM)
- IC50 [1]: < 10 µM
- MIC (N. gonorrhoeae WHO Z; [11]): 16 to 32 µg/mL (≈ 23 to 46.1 µM)
- MIC (N. gonorrhoeae WHO Q; [12]): 16 to 32 µg/mL (≈ 23 to 46.1 µM)
- MIC (N. gonorrhoeae FA1090; [13]): 4 to 8 µg/mL (≈ 5.76 to 11.5 µM)
- MIC (P. aeruginosa CDC-0095): 8 to 16 µg/mL (≈ 11.5 to 23 µM)
- MIC (N. gonorrhoeae WHO G; [14]): 16 to 32 µg/mL (≈ 23 to 46.1 µM)
- MIC (N. gonorrhoeae WHO M; [15]): 4 to 8 µg/mL (≈ 5.76 to 11.5 µM)
- MIC (A. baumannii 1258916): < 1 µg/mL

SMILES: O=C(NCCCS(=O)(=O)N1CCN(C(=O)NC(C(=O)N[C@H]2Cc3ccc(F)c(C(=O)O)c3OB2O)c2cc(F)c(O)c(O)c2Cl)C1=O)c1ccncc1 (stereo partly drawn) [Example 272, (3R)-3-(2-(2-chloro-5-fluoro-3,4-dihydroxyphenyl)-2-(3-((3-(isonicotinamido)propyl)sulfonyl)-2-oxoimidazolidine-1-carboxamido)acetamido)-7-fluoro-2-hydroxy-3,4-dihydro-2H-benzo[e][1,2]oxaborinine-8-carboxylic acid]
- MIC (N. gonorrhoeae WHO X; [9]): > 64 µg/mL
- MIC (N. gonorrhoeae WHO K; [10]): > 64 µg/mL
- MIC (A. baumannii CDC-0036): 2 to 4 µg/mL (≈ 2.56 to 5.12 µM)
- IC50 [1]: < 10 µM
- MIC (N. gonorrhoeae WHO Z; [11]): 4 to 8 µg/mL (≈ 5.12 to 10.2 µM)
- MIC (N. gonorrhoeae WHO Q; [12]): 16 to 32 µg/mL (≈ 20.5 to 41 µM)
- MIC (N. gonorrhoeae FA1090; [13]): 4 to 8 µg/mL (≈ 5.12 to 10.2 µM)
- MIC (P. aeruginosa CDC-0095): > 128 µg/mL
- MIC (N. gonorrhoeae WHO G; [14]): 16 to 32 µg/mL (≈ 20.5 to 41 µM)
- MIC (N. gonorrhoeae WHO M; [15]): 16 to 32 µg/mL (≈ 20.5 to 41 µM)
- MIC (A. baumannii 1258916): 2 to 4 µg/mL (≈ 2.56 to 5.12 µM)
